Assay [1] is described as follows: Affinity Phenotypic Cellular interaction (Proliferation assay (CellTiter-Glo ATP assay in human lung H1299 cells)) EUB0000752a NDUFS2. Background: Cellular ATP, detected with luciferase, serves as a proxy for viable cell number.
The target of assay [2] is Serine/threonine-protein kinase TBK1 (Homo sapiens, UniProt Q9UHD2).
Assay [3] deals with Inhibitor of nuclear factor kappa-B kinase subunit epsilon (Homo sapiens, UniProt Q14164).
The target in assay [4] is T1, Presenilin-1 (Homo sapiens, UniProt P49768). Put plainly: Affinity Phenotypic Cellular interaction (Abeta42 inhibition assay (electrochemiluminescent detection of peptides secreted by SH-SY5Y cells stably overexpressing the APP C-terminal fragment SPA4CT)) EUB0000739a PSEN1. Also on record: mode of action Negative control for GSM1, recommended concentration 1 uM.
Assay [5] addresses T1, Presenilin-1. Put plainly: Affinity Phenotypic Cellular interaction (Abeta40 inhibition assay (in SH-SY5Y (SP4CT) cells; APP as target)) EUB0000750a PSEN1. Type of assay: cell-based. Also on record: mode of action Inhibitor, recommended concentration 100 nM.
For assay [6], the target named is Methionine aminopeptidase 2 (Homo sapiens, UniProt P50579). As to the kind of experiment: Affinity Phenotypic Cellular interaction (Western Blot (acumulation of Nmet14-3-3gamma in HUVEC cells)) EUB0000303b METAP2. It is filed as cell-based. Also on record: mode of action Inhibitor, recommended concentration 1 uM. (In general: In western blotting, separated proteins are transferred to a membrane and probed.)

Assay [7] deals with T2, Mitogen-activated protein kinase 11 (Homo sapiens, UniProt Q15759). Put plainly: Affinity Phenotypic Cellular interaction (TNF-a release (stimmulated by LPS in human WB)) EUB0000711a MAPK11. Type of assay: functional. Also on record: mode of action Negative control for SR318, recommended concentration 1 uM.
The target in assay [8] is Mitogen-activated protein kinase 14 (Homo sapiens, UniProt Q16539). As to the kind of experiment: Affinity Phenotypic Cellular interaction (TNF-a release (stimmulated by LPS in human WB)) EUB0000711a MAPK14. It is filed as functional. Set-up: mode of action Negative control for SR318, recommended concentration 1 uM.
Assay [9] concerns the target T2, Mitogen-activated protein kinase 11. Put plainly: Affinity Phenotypic Cellular interaction (TNF-a release (stimmulated by LPS in human WB)) EUB0000718a MAPK11. It is filed as functional. Set-up: mode of action Inhibitor, recommended concentration 1 uM.
Assay [10] deals with T1, Presenilin-1. As to the kind of experiment: Affinity Phenotypic Cellular interaction (Abeta40 inhibition assay (in SH-SY5Y (SP4CT) cells; APP as target)) EUB0000741a PSEN1. Type of assay: cell-based. Set-up: mode of action Negative control for MRK-560, recommended concentration 100 nM.
Assay [11] concerns the target B-cell lymphoma 6 protein (Homo sapiens, UniProt P41182). Put plainly: Affinity Phenotypic Cellular interaction (Inhibition of BCL6 co-repressor (BCoR, M2H assay/Bright-Glo luciferase assay in HEK293T cells, Promega)) EUB0000316c BCL6. It is filed as cell-based. Also on record: mode of action Inhibitor, recommended concentration 1 uM.
Assay [12] addresses 5'-AMP-activated protein kinase catalytic subunit alpha-1 (Homo sapiens, UniProt Q13131). Put plainly: Affinity Phenotypic Cellular interaction (Cellular mechanistic pACC assay using IMR-32 neuroblastoma cells) EUB0000707a PRKAA1. Type of assay: functional. Also on record: mode of action Negative control for BAY-3827, recommended concentration 100 nM.
For assay [13], the target named is Ribosomal protein S6 kinase alpha-1 (Homo sapiens) (UniProt Q15418). Put plainly: Affinity Phenotypic Cellular interaction (Cellular mechanistic pACC assay using IMR-32 neuroblastoma cells) EUB0000707a RPS6KA1.
The target in another assay is TGF-beta receptor type-1 (Homo sapiens, UniProt P36897). As to the kind of experiment: Affinity Phenotypic Cellular interaction (Western blot (inhibition of SMAD2/3 phosphorylation)) EUB0000710a TGFBR1.
Assay [14] deals with T3, Activin receptor type-1B (Homo sapiens, UniProt P36896). As to the kind of experiment: Affinity Phenotypic Cellular interaction (Western blot (inhibition of SMAD2/3 phosphorylation)) EUB0000710a ACVR1B.
Assay [15] concerns the target T4, Calcium/calmodulin-dependent protein kinase kinase 2 (Homo sapiens, UniProt Q96RR4). As to the kind of experiment: Affinity Phenotypic Cellular interaction (Western Blot (downstream phosphorylation of AMPK in C4-2 cells)) EUB0000167b CAMKK2. Also on record: mode of action Inhibitor, recommended concentration 1 uM. Type of assay: cell-based.
In assay [16] the target is T2, Mitogen-activated protein kinase 11.
Assay [17] has as its target T4, Calcium/calmodulin-dependent protein kinase kinase 2. Put plainly: Affinity Phenotypic Cellular interaction (Western Blot (downstream phosphorylation of AMPK in C4-2 cells)) EUB0000168b CAMKK2. It is filed as cell-based. Set-up: mode of action Negative control for SGC-CAMKK2-1 (UNC-YL-36), recommended concentration 1 uM.
For assay [18], the target named is T3, Activin receptor type-1B. Put plainly: Affinity Phenotypic Cellular interaction (Western blot (inhibition of SMAD2/3 phosphorylation)) EUB0000312b ACVR1B. Also on record: mode of action Inhibitor, recommended concentration 1 uM.

Molecules are shown by their SMILES.

T2 sequence (Q15759 whole entry): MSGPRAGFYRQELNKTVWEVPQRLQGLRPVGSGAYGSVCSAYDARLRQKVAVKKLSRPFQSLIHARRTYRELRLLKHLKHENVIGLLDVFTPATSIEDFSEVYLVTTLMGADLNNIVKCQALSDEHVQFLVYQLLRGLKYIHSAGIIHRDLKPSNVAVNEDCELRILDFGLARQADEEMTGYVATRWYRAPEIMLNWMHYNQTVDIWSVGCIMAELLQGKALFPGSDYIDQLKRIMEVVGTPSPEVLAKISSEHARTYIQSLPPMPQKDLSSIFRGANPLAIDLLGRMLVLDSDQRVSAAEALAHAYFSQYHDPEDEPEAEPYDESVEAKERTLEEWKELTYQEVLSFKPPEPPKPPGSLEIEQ
T4 sequence (Q96RR4 whole entry): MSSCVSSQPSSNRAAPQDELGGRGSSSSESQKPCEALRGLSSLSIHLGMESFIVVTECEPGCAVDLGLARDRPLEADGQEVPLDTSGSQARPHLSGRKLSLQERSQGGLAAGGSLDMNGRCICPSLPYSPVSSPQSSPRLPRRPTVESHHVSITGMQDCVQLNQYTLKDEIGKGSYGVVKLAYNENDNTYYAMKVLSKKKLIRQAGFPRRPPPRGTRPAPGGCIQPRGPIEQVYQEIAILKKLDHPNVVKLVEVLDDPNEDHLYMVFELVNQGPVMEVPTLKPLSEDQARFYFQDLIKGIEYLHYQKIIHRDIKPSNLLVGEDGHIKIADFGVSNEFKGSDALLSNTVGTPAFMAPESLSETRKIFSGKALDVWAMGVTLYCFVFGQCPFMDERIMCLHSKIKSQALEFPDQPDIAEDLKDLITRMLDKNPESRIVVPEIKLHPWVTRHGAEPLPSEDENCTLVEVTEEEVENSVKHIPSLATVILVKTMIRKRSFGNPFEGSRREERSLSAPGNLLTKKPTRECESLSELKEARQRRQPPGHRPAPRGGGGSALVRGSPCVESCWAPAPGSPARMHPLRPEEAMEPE
T3 sequence (P36896 whole entry): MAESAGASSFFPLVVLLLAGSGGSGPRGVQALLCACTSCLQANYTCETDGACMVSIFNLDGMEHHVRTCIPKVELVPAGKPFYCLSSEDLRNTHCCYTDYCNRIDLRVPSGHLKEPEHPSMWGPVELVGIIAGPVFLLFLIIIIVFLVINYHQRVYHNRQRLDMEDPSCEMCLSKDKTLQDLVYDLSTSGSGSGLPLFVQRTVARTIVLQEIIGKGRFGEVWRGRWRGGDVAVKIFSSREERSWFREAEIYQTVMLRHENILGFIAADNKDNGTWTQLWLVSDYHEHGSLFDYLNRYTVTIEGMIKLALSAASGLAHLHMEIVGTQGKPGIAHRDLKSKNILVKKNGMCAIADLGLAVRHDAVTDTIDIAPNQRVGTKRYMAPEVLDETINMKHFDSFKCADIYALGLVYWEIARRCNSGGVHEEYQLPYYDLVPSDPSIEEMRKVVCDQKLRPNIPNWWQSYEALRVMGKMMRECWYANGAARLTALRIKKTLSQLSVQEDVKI
Sequence of Serine/threonine-protein kinase TBK1 (Q9UHD2 whole entry): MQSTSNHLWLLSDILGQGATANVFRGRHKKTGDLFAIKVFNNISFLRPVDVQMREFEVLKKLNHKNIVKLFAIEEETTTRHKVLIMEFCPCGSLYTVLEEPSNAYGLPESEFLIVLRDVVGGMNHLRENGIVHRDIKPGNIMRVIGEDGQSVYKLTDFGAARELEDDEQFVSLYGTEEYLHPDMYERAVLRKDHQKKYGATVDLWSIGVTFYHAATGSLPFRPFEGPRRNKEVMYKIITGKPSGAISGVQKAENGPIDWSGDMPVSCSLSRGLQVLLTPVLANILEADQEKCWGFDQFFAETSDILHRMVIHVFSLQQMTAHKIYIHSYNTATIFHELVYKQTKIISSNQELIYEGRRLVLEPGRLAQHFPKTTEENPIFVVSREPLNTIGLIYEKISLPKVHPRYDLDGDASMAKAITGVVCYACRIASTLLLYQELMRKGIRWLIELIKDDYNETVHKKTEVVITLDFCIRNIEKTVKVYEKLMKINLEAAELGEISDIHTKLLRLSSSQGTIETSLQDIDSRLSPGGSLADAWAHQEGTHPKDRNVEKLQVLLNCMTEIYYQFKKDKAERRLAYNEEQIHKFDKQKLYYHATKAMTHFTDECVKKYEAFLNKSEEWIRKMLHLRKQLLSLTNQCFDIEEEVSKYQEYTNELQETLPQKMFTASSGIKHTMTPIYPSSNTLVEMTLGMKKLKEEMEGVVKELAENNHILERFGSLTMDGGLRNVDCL
Sequence of TGF-beta receptor type-1 (P36897 whole entry): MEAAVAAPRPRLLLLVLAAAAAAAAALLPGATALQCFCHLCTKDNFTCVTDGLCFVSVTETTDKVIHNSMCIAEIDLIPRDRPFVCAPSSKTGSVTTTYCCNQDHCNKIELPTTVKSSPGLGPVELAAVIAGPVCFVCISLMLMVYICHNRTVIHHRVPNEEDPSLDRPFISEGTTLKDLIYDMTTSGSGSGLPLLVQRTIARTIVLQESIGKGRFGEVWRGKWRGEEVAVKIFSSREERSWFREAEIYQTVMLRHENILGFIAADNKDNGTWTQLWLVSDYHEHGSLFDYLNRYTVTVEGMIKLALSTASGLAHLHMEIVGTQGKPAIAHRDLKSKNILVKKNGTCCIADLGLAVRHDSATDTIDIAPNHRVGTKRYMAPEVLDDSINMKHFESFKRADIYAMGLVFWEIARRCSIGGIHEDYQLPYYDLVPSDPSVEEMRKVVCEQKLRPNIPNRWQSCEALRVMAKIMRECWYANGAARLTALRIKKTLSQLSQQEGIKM
Sequence of Mitogen-activated protein kinase 14 (Q16539 whole entry): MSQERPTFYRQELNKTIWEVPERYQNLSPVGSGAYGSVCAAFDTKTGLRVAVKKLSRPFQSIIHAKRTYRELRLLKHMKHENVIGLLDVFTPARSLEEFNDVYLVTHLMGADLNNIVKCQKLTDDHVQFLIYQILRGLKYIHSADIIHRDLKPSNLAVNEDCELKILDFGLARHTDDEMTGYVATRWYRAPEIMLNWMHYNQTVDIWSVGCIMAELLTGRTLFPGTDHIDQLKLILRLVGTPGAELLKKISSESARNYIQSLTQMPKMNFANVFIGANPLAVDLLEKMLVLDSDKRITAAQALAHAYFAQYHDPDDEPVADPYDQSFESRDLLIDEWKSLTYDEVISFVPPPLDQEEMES
Sequence of Ribosomal protein S6 kinase alpha-1 (Homo sapiens) (Q15418 whole entry, looked up): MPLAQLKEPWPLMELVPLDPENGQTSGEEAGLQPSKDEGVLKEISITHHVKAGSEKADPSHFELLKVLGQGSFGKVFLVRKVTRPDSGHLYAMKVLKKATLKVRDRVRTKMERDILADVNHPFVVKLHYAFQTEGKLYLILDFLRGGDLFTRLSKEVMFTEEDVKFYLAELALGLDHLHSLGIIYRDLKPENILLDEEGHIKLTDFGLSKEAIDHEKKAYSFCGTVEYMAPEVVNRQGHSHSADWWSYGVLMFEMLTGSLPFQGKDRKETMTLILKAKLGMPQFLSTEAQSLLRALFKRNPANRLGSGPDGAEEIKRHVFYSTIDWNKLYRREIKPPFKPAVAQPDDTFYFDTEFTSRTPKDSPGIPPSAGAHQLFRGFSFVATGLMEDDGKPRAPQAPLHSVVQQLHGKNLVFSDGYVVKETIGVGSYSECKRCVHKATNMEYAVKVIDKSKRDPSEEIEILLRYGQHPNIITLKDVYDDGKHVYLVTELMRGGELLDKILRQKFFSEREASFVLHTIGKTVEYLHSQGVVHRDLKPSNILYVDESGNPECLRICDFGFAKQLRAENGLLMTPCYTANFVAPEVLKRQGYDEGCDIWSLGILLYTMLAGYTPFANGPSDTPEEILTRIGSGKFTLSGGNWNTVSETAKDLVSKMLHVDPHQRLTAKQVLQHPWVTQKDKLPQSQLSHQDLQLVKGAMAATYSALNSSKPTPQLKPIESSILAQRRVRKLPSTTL
Sequence of Inhibitor of nuclear factor kappa-B kinase subunit epsilon (Q14164 whole entry, the tested form may be a part): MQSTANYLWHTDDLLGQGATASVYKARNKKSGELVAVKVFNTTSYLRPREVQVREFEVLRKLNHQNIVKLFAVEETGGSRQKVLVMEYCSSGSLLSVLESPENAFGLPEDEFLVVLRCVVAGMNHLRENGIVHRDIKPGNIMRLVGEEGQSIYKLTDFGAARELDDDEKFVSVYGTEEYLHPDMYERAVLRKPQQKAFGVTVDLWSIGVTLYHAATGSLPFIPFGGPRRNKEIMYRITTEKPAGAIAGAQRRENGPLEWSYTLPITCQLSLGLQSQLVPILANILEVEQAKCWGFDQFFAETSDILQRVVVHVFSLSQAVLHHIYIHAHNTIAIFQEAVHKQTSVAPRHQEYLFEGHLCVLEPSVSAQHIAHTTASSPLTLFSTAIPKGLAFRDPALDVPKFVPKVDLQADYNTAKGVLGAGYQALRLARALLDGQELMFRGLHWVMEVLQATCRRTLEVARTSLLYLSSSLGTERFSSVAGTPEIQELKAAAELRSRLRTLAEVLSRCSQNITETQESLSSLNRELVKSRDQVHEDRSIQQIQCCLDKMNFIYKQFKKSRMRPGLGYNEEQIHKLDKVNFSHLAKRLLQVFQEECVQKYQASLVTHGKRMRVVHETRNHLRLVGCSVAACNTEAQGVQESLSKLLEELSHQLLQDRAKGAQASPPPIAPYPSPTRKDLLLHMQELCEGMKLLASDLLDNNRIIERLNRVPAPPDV
Sequence of Methionine aminopeptidase 2 (P50579 whole entry): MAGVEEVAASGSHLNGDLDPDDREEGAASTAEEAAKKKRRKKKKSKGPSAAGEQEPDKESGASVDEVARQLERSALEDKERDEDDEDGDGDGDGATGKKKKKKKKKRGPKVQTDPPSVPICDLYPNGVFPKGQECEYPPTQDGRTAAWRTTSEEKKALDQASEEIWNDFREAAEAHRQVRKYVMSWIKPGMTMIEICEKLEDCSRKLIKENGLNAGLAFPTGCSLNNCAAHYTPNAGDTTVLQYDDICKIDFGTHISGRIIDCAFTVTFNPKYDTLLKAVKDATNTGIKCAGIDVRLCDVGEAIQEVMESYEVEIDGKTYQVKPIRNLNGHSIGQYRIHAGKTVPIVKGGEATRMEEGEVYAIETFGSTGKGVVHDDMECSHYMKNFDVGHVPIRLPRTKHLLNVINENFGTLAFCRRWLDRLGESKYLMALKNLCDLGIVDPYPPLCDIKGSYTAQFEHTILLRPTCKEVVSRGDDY

For `c1ccc2oc(-c3csc(C4CCN(Cc5nc6ncccc6[nH]5)CC4)n3)cc2c1`, half-maximal inhibition in [1] (IC50) required 33 nM.

Turning to `C[C@H](c1ccnc(Nc2nc3ccc(-c4cc(N(C)C)ncn4)cc3[nH]2)c1)N1CCN(C(=O)CC(F)(F)F)CC1` [BAY-985], the IC50 in [2] and in [3] was 74 nM each time. On to `COc1cc(-c2cn([C@H]3CCc4ccccc4N(CC(F)(F)F)C3=O)nn2)ccc1-n1ccc(C)n1`, for which the IC50 (as a rule, the concentration at which inhibition is half-maximal) at Presenilin-1 [4] was more than 10000 nM. `O=S(=O)(NC1CCC(c2cc(F)ccc2F)(S(=O)(=O)c2ccc(Cl)cc2)CC1)C(F)(F)F` (centres undefined) [MRK-560] displayed an IC50 at Presenilin-1 [5] of less than 0.5 nM.

As to `Cc1nc(N2CC[C@H](O)C2)ncc1-c1cc(C(F)(F)F)cc2[nH]ncc12`, a half-maximal effect in assay [6] (EC50) was put at 15 nM. With `O=C(NCCCC1CCCCC1)c1ccc(CNC(=O)c2cnn(-c3ccccc3)c2C(F)(F)F)cc1` [SR-321], the IC50 in assay [7] and in assay [8] was more than 10000 nM in each case. In assay [9], `O=C(NCCN1CCOCC1)c1ccc2c(c1)C(=O)c1ccc(Nc3ccc(F)c(NC(=O)c4ccccc4)c3)cc1CC2` [FS-694] had an IC50 of 38 nM. For the compound `CC(C)(C)OC(=O)N1CCCC1CNC1CCC(c2cc(F)ccc2F)(S(=O)(=O)c2ccc(Cl)cc2)CC1` (centres undefined) [GSI-NC], at Presenilin-1 [10], half-maximal inhibition (IC50) was put at 1600 nM. In the case of `O=C1CCc2cc(Nc3cc(OC4CCOCC4)c([N+](=O)[O-])cc3Cl)ccc2N1`, inhibition in assay [11] was half-maximal at 720 nM (IC50). Take `CC1=C(C#N)C(c2ccc3c(c2)c(NC(=O)c2ccccc2C)nn3C)C(C#N)=C(C)N1` [BAY-974]: the IC50 in assay [12] and in assay [13] was more than 30000 nM each time. As for `Cc1cnc(-c2cc(Cl)ccc2F)cc1-n1c(=O)n(CC(N)=O)c2ccccc21` [Al11], the concentration for a half-maximal effect (EC50) at TGF-beta receptor type-1 and on Activin receptor type-1B [14] was more than 10000 nM each time. Take `Cc1cccc(-c2cnc3occ(-c4ccc(C(=O)O)c(C5CCCC5)c4)c3c2)c1`: the IC50 in assay [15] was determined as 1600 nM. Compound `O=C1c2ccc(Nc3ccc(F)cc3F)cc2CCc2ccc(OC[C@H](O)CO)cc21` [Skepinone-L] showed an IC50 in assay [16] of 25 nM. Turning to `O=C(O)c1ccc(-c2coc3ncc(-c4ccccc4)cc23)cc1Cl`, the half-inhibitory concentration (IC50) in [17] is more than 10000 nM.

For `Cc1cnc(-c2cc(Cl)ccc2F)cc1-n1c(=O)n(CC(N)=O)c2cnccc21` [TP-008], the EC50 (in general, the midpoint of the concentration-response curve) at Activin receptor type-1B [18] was more than 1000 nM.

Values taken from ChEMBL document CHEMBL5209897, “Affinity Phenotypic Cellular Literature for EUbOPEN Chemogenomics Library wave 3” (2023).
